The target in one assay is FGFR2 (Homo sapiens (Human), UniProt P21802). In words: Biochemical FGFR2 Caliper assay.
The next assay relates to SNU-16. In words: Cell SNU-16 assay. The class given is cell-based. The settings on record: Homo sapiens, SNU-16, SNU-16 cells.

Some results are limits rather than exact numbers.

Sequence of FGFR2 (P21802 22-821): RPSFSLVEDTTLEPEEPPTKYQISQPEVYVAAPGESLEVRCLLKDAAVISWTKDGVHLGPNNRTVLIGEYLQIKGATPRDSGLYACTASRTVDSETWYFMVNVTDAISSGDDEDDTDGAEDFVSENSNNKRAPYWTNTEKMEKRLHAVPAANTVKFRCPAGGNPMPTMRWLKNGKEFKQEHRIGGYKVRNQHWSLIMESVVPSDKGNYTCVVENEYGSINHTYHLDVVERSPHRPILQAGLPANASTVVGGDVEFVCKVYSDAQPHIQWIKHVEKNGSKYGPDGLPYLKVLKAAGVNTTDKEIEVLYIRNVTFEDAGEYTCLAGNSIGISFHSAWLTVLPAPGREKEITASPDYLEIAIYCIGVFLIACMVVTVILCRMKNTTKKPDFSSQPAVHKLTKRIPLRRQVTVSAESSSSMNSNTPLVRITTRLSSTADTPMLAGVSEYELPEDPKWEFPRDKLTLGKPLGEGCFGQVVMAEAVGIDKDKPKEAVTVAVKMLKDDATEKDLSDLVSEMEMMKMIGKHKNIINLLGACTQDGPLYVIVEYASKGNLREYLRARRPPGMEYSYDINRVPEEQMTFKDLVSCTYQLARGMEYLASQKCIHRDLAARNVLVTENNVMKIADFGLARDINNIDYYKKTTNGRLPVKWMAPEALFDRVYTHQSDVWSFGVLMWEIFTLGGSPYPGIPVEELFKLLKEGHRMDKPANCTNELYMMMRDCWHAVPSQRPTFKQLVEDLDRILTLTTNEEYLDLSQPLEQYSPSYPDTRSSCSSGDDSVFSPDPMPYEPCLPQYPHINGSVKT

As to `C=C(C)C(=O)Nc1cc(C)c(-c2c(C3=CC[C@@H](C(=O)N4CCCC4)CC3)c3c(N)ncnc3n2C)c(F)c1` [Example 1483], the figures for the IC50 at FGFR2 and in the assay on SNU-16 were under 100 nM and at most 100 nM, respectively.

On to `C=C(C)C(=O)Nc1ccc(-c2c(-c3cnc(-c4cccc(F)c4)s3)c3c(N)ncnc3n2C)cc1` [Example 1421], for which the IC50 against FGFR2 and in the assay with SNU-16 was 250 to 1000 nM each time.

With `C#Cc1ncc(-c2c(-c3ccc(Oc4nccc(C)n4)cn3)c3c(N)ncnc3n2C)c(OC)c1F` [Example 1490], the IC50 against FGFR2 and in the assay on SNU-16 was 1000 to 100000 nM each time.

`C=CC(=O)Nc1ccc(-c2c(-c3ccc(Oc4nccc(C)n4)c(F)c3)c3c(C)ncnc3n2C)c(C)c1` [Example 1105]: the IC50 against FGFR2 was under 100 nM; with SNU-16, at most 100 nM.

With `C#Cc1cc(C)c(-c2c(C3=CC[C@@H](C(=O)N4CCCC4=O)CC3)c3c(N)ncnc3n2C)cn1` (single isomer, unassigned) [Example 1241], the IC50 was under 100 nM against FGFR2 and at most 100 nM in the assay with SNU-16.

Consider `C=C(C)C(=O)Nc1ccc(-c2c(-c3ccc(-n4cc(CC)cn4)nc3)c3c(N)ncnc3n2C)cc1` [Example 1316], for which the IC50 against FGFR2 and with SNU-16 was 250 to 1000 nM in each case.

For the molecule `C=C(C)C(=O)Nc1ccc(-c2c(C3=CC[C@H](C(=O)N4CCC[C@@H]4C4CC4)CC3)c3c(N)ncnc3n2C)cc1` [Example 1058], the IC50 against FGFR2 and in the assay on SNU-16 was 1000 to 100000 nM throughout.

With `Cc1ccnc(Oc2ccc(-c3c(-c4ccc(-c5cnc(C#N)s5)cc4)n(C)c4ncnc(N)c34)cc2)n1` [Example 959], the IC50 on FGFR2 is 250 to 1000 nM; in the assay on SNU-16, at most 100 nM.

On to `C#Cc1ncc(-c2c(-c3ccc(Oc4nccc(C)n4)c(F)c3)c3c(N)ncnc3n2C(C)C)c(C)c1F` [Example 1334], for which the values for the IC50 on FGFR2 and in the assay with SNU-16 were under 100 nM and at most 100 nM, respectively.

Regarding `C#Cc1cc(C)c(-c2c(-c3ccc(Oc4nccc(C)n4)cc3)c3c(N)ncnc3n2C)nn1` [Example 1136], the IC50 at FGFR2 was under 100 nM; with SNU-16 it was at most 100 nM.

For `C=CC(=O)Nc1cccc(-c2c(-c3ccc(C(=O)NCC4(F)COC4)cc3)c3c(N)ncnc3n2C)c1` [Example 1030], the IC50 is under 100 nM on FGFR2 and at most 100 nM in the assay on SNU-16.

In the case of `C#Cc1nc2cc(-c3c(-c4ccc(Oc5nccc(C)n5)c(F)c4)c4c(N)ncnc4n3C)c(OC)cc2n1C` [Example 1426], the IC50 against FGFR2 was under 100 nM; in the assay on SNU-16 it was at most 100 nM.

In the case of `C#Cc1cc(F)c(-c2c(-c3ccc(Oc4nccc(C)n4)c(F)c3)c3c(N)ncnc3n2C)cn1` [Example 1198], the results for the IC50 against FGFR2 and in the assay on SNU-16 were under 100 nM and at most 100 nM, respectively.

Consider `C=C(C)C(=O)Nc1ccc(-c2c(C3=C(F)C[C@H](C(=O)N4CCCC4)CC3)c3c(N)ncnc3n2C)cc1` [Example 882], for which the IC50 against FGFR2 and with SNU-16 was 1000 to 100000 nM each time.

For `C=Cc1nc2cc(-c3c(-c4ccc(C(=O)N5CCCC5)cc4)c4c(N)ncnc4n3C)ccc2n1C` [Example 893], the IC50 against FGFR2 and in the assay with SNU-16 was 1000 to 100000 nM in each case.

On to `C=CC(=O)N1CCN(c2cccc(-c3c(-c4ccc(Oc5cccc(C)n5)cc4)c4c(N)ncnc4n3C)c2)CC1` [Example 1004], for which the IC50 at FGFR2 is under 100 nM; in the assay on SNU-16 it was at most 100 nM.

On to `C#Cc1cc(OC)c(-c2c(C3=CC[C@H](C(=O)N4CCC[C@H]4C#N)CC3)c3c(C)ncnc3n2C)c(C)n1` [Example 1473], for which the 50% inhibitory concentration (IC50) against FGFR2 was under 100 nM; in the assay on SNU-16 it was at most 100 nM.

For `C=C(C)C(=O)Nc1cc(C)c(-c2c(C3=CC[C@H](C(=O)N4CCCC4)CC3)c3c(N)ncnc3n2C)c(C)c1` (single isomer, unassigned) [Example 1486], the half-maximal inhibitory concentration (IC50) on FGFR2 and in the assay with SNU-16 was 1000 to 100000 nM throughout.

In the case of `C=C1CCN(c2ccc(-c3c(-c4ccc(Oc5nccc(C)n5)cc4)c4c(N)ncnc4n3C)c(C)c2)C1=O` [Example 1096], the concentration for half-maximal inhibition (IC50) against FGFR2 is under 100 nM; in the assay on SNU-16, at most 100 nM.

Take `C=C(C)C(=O)Nc1ccc(-c2c(-c3ccc(Oc4nccc(C)n4)cc3)c3c(N)ncnc3n2C)c(Cl)c1C` [Example 1064]: the results for the IC50 at FGFR2 and with SNU-16 were under 100 nM and at most 100 nM, respectively.

For `C=C(C)C(=O)Nc1ccc(-c2c(C3=CC[C@@]4(CC3)CCN(C)C4=O)c3c(N)ncnc3n2C)cc1` (single isomer, unassigned) [Example 935], the IC50 against FGFR2 and in the assay on SNU-16 was 1000 to 100000 nM each time.

`C=C(C)C(=O)Nc1ccc(-c2c(-c3ccc(C(=O)N[C@H]4C[C@H](F)C4)c(OC(F)F)c3)c3c(N)ncnc3n2C)cc1` [Example 970]: the 50% inhibitory concentration (IC50) at FGFR2 and in the assay with SNU-16 was 1000 to 100000 nM throughout.

Take `C=CC(=O)Nc1ccc(-c2c(-c3c[nH]c4ccccc34)c3c(N)ncnc3n2C)cc1` [Example 1157]: the IC50 at FGFR2 and with SNU-16 was 250 to 1000 nM in each case.

For the molecule `C=C(C)C(=O)Nc1ccc(-c2c(-c3ccc4occc4c3)c3c(N)ncnc3n2C)cc1` [Example 1288], the IC50 against FGFR2 and with SNU-16 was 1000 to 100000 nM throughout.

For the molecule `C=CC(=O)N[C@@H]1CCc2ccc(-c3c(-c4ccc(Oc5nccc(C)n5)cc4)c4c(N)ncnc4n3C)cc2C1` (single isomer, unassigned) [Example 944], the IC50 on FGFR2 and in the assay with SNU-16 was 1000 to 100000 nM in each case.

`C=CS(=O)(=O)N1CC[C@@H](c2c(-c3ccc(C(=O)N4CCCC4)cc3)c3c(N)ncnc3n2C)C1` (single isomer, unassigned) [Example 864]: the values for the IC50 against FGFR2 and in the assay on SNU-16 were under 100 nM and 100 to 250 nM, respectively.

As to `C#Cc1ncc(-c2c(-c3ccc(C(=O)N4CCC[C@H]4C#C)cc3)c3c(N)ncnc3n2C)c(C)c1F` (single isomer, unassigned) [Example 1331], the IC50 at FGFR2 was under 100 nM; in the assay with SNU-16 it was at most 100 nM.

For the molecule `C=CC(=O)N(C)C1CCC(c2c(-c3ccc(Oc4cccc(C)n4)cc3)c3c(N)ncnc3n2C)C1` (stereo not drawn) [Example 816], the IC50 lay in the range of 250 to 1000 nM against FGFR2 and 100 to 250 nM with SNU-16.

With `Cc1ccnc(Oc2ccc(-c3c(-c4ccc(NC(=O)/C=C/CN(C)C)cc4)n(C)c4ncnc(N)c34)cc2F)n1` [Example 1013], the IC50 is under 100 nM at FGFR2 and at most 100 nM in the assay on SNU-16.

For the molecule `Cn1c([C@H]2CCN(C#N)C2)c(-c2ccc(C(=O)N3CCCC3)cc2)c2c(N)ncnc21` (single isomer, unassigned) [Example 861], the IC50 against FGFR2 and in the assay on SNU-16 was 1000 to 100000 nM in each case.

With `C=C(C)C(=O)Nc1ccc(-c2c(-c3ccc(C(=O)N[C@H]4C[C@H](F)C4)c(OC4CC4)c3)c3c(N)ncnc3n2C)cc1` [Example 978], the 50% inhibitory concentration (IC50) against FGFR2 and in the assay on SNU-16 was 250 to 1000 nM each time.

`C=CC(=O)Nc1ccc(-c2c(-c3ccc(Oc4nccc(C)n4)c(C)c3)c3c(N)ncnc3n2C)c(C)c1` [Example 1083]: the figures for the IC50 on FGFR2 and in the assay with SNU-16 were 250 to 1000 nM and 1000 to 100000 nM, respectively.

On to `C=C(C)C(=O)Nc1ccc(-c2c(C3=CC[C@@]4(CC3)Cc3ccccc3C4=O)c3c(N)ncnc3n2C)cc1` (single isomer, unassigned) [Example 987], for which the IC50 at FGFR2 and in the assay with SNU-16 was 1000 to 100000 nM in each case.

Regarding `C=C1CCN(c2ccc(-c3c(C4=CC[C@H](C(=O)N5CCCC5)CC4)c4c(C)ncnc4n3C)c(Cl)c2)C1=O` (single isomer, unassigned) [Example 1141], the values for the half-inhibitory concentration (IC50) at FGFR2 and in the assay with SNU-16 were under 100 nM and at most 100 nM, respectively.

As to `C#Cc1ccc(-c2c(-c3ccc(C(=O)N4CCCC4)cc3)c3c(N)ncnc3n2C)cn1` [Example 1040], the IC50 fell in the range of 1000 to 100000 nM against FGFR2 and 250 to 1000 nM with SNU-16.

Take `C#Cc1ccc2c(n1)OCCn1c-2c(-c2ccc(Oc3nccc(C)n3)c(F)c2)c2c(N)ncnc21` [Example 1495]: the IC50 against FGFR2 was under 100 nM; in the assay with SNU-16, at most 100 nM.

On to `C=C(CN(C)C)C(=O)Nc1ccc(-c2c(-c3ccc(C(=O)NCC4(F)COC4)cc3)c3c(N)ncnc3n2C)cc1` [Example 1044], for which the values for the IC50 on FGFR2 and with SNU-16 were under 100 nM and at most 100 nM, respectively.

On to `C#Cc1nc2cc(-c3c(-c4ccc(Oc5nccc(C)n5)c(F)c4)c4c(C)ncnc4n3C)ccc2[nH]1` [Example 1364], for which the IC50 was under 100 nM at FGFR2 and at most 100 nM with SNU-16.

Take `C=C(C)C(=O)Nc1cnc(-c2c(-c3ccc(Oc4cccc(C)n4)c(F)c3)c3c(N)ncnc3n2C)c(C)c1` [Example 1095]: the IC50 against FGFR2 was under 100 nM; with SNU-16, at most 100 nM.

Take `C=C(C)C(=O)Nc1ccc(-c2c(-c3ccc(C(=O)N4CCCC4)cc3)c3c(N)nn(C)c(=O)c3n2C)cc1` [Example 878]: the IC50 against FGFR2 is 100 to 250 nM; with SNU-16 it was at most 100 nM.

Turning to `C=CC(=O)NCc1ccc(-c2c(-c3ccc(Oc4nccc(C)n4)cc3)c3c(N)ncnc3n2C)cc1` [Example 921], the figures for the IC50 against FGFR2 and in the assay on SNU-16 were 1000 to 100000 nM and 250 to 1000 nM, respectively.

Take `C=C(C)C(=O)Nc1ccc(-c2c(-c3ccc(C(=O)N[C@H]4C[C@@H](F)C4)c(COC)c3)c3c(N)ncnc3n2C)cc1` [Example 967]: the IC50 on FGFR2 and with SNU-16 was 1000 to 100000 nM throughout.

As for `C#Cc1cc(OC)c(-c2c(-c3ccc(Oc4nccc(C)n4)cn3)c3c(N)ncnc3n2C)cn1` [Example 1491], the IC50 against FGFR2 is under 100 nM; in the assay on SNU-16 it was at most 100 nM.

For the molecule `C=C(C)C(=O)Nc1ccc(-c2c(-c3ccc(OCc4ccccn4)c(F)c3)c3c(N)ncnc3n2C)cc1` [Example 1436], the IC50 against FGFR2 and in the assay with SNU-16 was 1000 to 100000 nM each time.

`C=CC(=O)N1CC=C(c2c(-c3ccc(Oc4cccc(C)n4)cc3)c3c(N)ncnc3n2C)[C@@H]1C` (single isomer, unassigned) [Example 933]: the IC50 against FGFR2 was under 100 nM; in the assay on SNU-16, at most 100 nM.

As for `C#Cc1cc(C)c(-c2c(C3=CC[C@H](C(=O)N4CCCC45COC5)CC3)c3c(N)ncnc3n2C)cn1` (single isomer, unassigned) [Example 1238], the values for the IC50 against FGFR2 and with SNU-16 were 250 to 1000 nM and 100 to 250 nM, respectively.

With `C=C(C)C(=O)Nc1ccc(-c2c(-c3ccc(Oc4nccc(C)n4)c(F)c3)c3c(C)ncnc3n2C)cc1` [Example 1068], the IC50 on FGFR2 is under 100 nM; in the assay on SNU-16, at most 100 nM.

Take `C=C(C)C(=O)Nc1ccc(-c2c(-c3ccc(C(=O)NCC4CCC4)c(OC)n3)c3c(N)ncnc3n2C)cc1` [Example 983]: the results for the IC50 on FGFR2 and in the assay with SNU-16 were under 100 nM and at most 100 nM, respectively.

Broadly, the IC50 is the point on the concentration scale where inhibition reaches its midpoint. Read a high IC50 as a need for much substance.
